The values that follow come from ChEMBL document CHEMBL4393720, “Design, synthesis and biological evaluation of bromophenol-thiazolylhydrazone hybrids inhibiting the interaction of translation initiation factors eIF4E/eIF4G as multifunctional agents for cancer treatment” (Eur J Med Chem, 2019).

Usually IC50 stands for the concentration at which inhibition is half-maximal. Broadly, the inhibition in vivo is the percentage by which the read-out fell short of the control. As usually defined, the Tmax is the time from dosing to the highest level.

The test system of data set [1] is HepG2. Description: Antiproliferative activity against human HepG2 cells assessed as inhibition of cell growth incubated for 48 hrs by MTT assay. To be noted: HepG2, 48 h. Type of data set: functional, cell-based. (In general: Tetrazolium assays rely on reduction of a dye to a coloured formazan, in cell work by metabolically active cells.)
The subject of data set [2] is A549. Description: Inhibition of eIF4E/eIF4G interaction in human A549 cells incubated for 48 hrs by m7GTP pull down assay. Type of data set: cell-based.
The subject of data set [3] is A549. Description: Induction of apoptosis in human A549 cells assessed as nuclear shrinkage and chromatin condensation at 1 to 5 uM incubated for 48 hrs by Hoechst 33258 staining based fluorescence microscopy. It counts as functional, cell-based.
In data set [4] the test system is A549. As to the kind of experiment: Antitumor activity against human A549 cells xenografted in athymic nude mouse assessed as decrease in tumor growth at 50 mg/kg, ip administered once daily for 21 days. Type of data set: functional. To be noted: 504 h. Background: In xenograft studies the graft and the host belong to different species.
In data set [5] the test system is A549. As to the kind of experiment: Decrease in phosphorylation of Ki67 in human A549 cells xenografted in athymic nude mouse at 25 to 50 mg/kg, ip administered once daily for 21 days by immunocytochemistry. It counts as functional, organism-based.
A short description of data set [6]: Acute toxicity in SPF Kunming mouse assessed as body weight at 500 mg/kg, po administered as single dose measured at day 14 (reference value: 34.7g). It counts as organism-based. The following applies: in vivo.
The nature of data set [7]: Tmax in male Sprague-Dawley rat at 2 mg/kg, iv measured up to 24 hrs by LC/MS-MS analysis. It counts as ADME, organism-based. The following applies: in vivo.
In data set [8] the test system is A549. As to the kind of experiment: In vivo inhibition of PI3K/Akt/mTOR in human A549 cells xenografted in athymic nude mouse assessed as decrease in phosphorylation of 4EBP1 at 25 to 50 mg/kg, ip administered once daily for 21 days by immunocytochemistry. It counts as functional, organism-based.
Data set [9] is described as follows: Subacute toxicity in SPF Kunming mouse assessed as behavioural abnormalities at 2000 mg/kg, po administered once a day for 14 days. Type of data set: organism-based. To be noted: in vivo, 336 h.
A short description of data set [10]: Subacute toxicity in SPF Kunming mouse assessed as liver morphological changes at 2000 mg/kg, po administered once a day for 14 days by H and E staining based microscopic analysis. Type of data set: organism-based. The following applies: in vivo, 336 h.
Data set [11] is described as follows: Subacute toxicity in SPF Kunming mouse assessed as kidney morphological changes at 2000 mg/kg, po administered once a day for 14 days by H and E staining based microscopic analysis. Type of data set: organism-based. To be noted: in vivo, 336 h.

The structures appear in SMILES notation. Calls of active or inactive are those of the source. No cut-off for these calls is given here.

Turning to `Fc1ccc(/C=N/Nc2nc(-c3ccc(C(F)(F)F)cc3)cs2)cc1F`, the concentration for half-maximal inhibition (IC50) in data set [1] worked out at 14.5 µM. Moreover, the inhibition result in [2], in [5] and in [8] was “Active” in each case. Further, the outcome in [3] was Active. Moreover, in data set [4], the inhibition in vivo at 50 mg/kg was 75%. Also, the Activity in data set [6] was 33.3 g; in data set [9], “Non-Toxic”; in data set [10], “Non-Toxic”; in [11], “Non-Toxic”. For the same compound, the Tmax in data set [7] was found to be 2 h.
